Where “and” joins values, the source holds several entries; their conditions need not be identical. Equal values may be shown once. Read-outs that look alike come from different tables or passages of the source.
Legend:
[1] = target: NCT receptor (Rattus norvegicus, UniProt P09483+P12390); format: binding
Description: (§1) Solubilization of rat brain tissue: All of the tissue from four rat brains was homogenized in 30 ml of Tris-HCl buffer (50 mM, pH 7.4) containing 5 mM EDTA, 3 mM benzamidine and 0.2 mM PMSF for 3×20 seconds using a Polytron homogenizer (Brinkman Instruments, Westbury, N.Y., USA) at setting 6. The mixture was kept in an ice bath for 20 seconds between each homogenization step to prevent excessive heating of the tissue. The homogenized brain tissue was centrifuged for 10 minutes at 4° C. at 35,000×g, and the supernatant was discarded. The pellet was suspended in 10 ml of Tris-HCl buffer (50 mM, pH 7.4) containing 100 mM NaCl, 2 mM MgCl2, 3 mM CaCl2, 5 mM KCl, 2% sodium cholate, and 10 μg/ml leupeptin. The resulting mixture was stirred for 12 hours at 4° C. and centrifuged at 35,000×g.
(§2) Immobilization of solubilized receptors: The supernatant (receptor-cholate suspension) was mixed with 200 mg of dried IAM-PC packing material and stirred gently for 1 hour at 25° C., transferred into dialysis tubing, and dialyzed for 48 hours at 4° C. against 3×600 ml of Tris-HCl buffer (50 mM, pH 7.4) containing 5 mM EDTA, 100 mM NaCl, 0.1 mM CaCl2 and 0.1 mM PMSF. […]
(§3) The value of Vmin can be determined by running (^3H)-EB in a series of concentration of drugs and plotting 1/(Vmax−V) versus 1/(drug) extrapolating to infinite (drug). […]

[2] = tested on: GABAA receptor; assay: Frontal chromatography on MR-SP, marker (3H)-FTZ; format: binding, rat
Description: as §1, §2, §3

[3] = target: Nicotinic Receptor; settings: read-out: Kd Standard, cited from earlier work
[4] = target: GABAA receptor; settings: rat brain membranes; read-out: Kd Standard; cited from earlier work
[5] = tested on: NMDA receptor
Description: as §1
Immobilization of solubilized receptors: The supernatant (receptor-cholate suspension) was mixed with 200 mg of dried IAM-PC packing material and stirred gently for 1 hour at 25° C., transferred into dialysis tubing, and dialyzed for 48 hours at 4° C. against 3×600 ml of Tris-HCl buffer (50 mM, pH 7.4) containing 5 mM EDTA, 100 mM NaCl, 0.1 mM CaCl2 and 0.1 mM PMSF.
The resulting mixture was centrifuged for 3 minutes at 4° C. at 32,000×g, and the supernatant was discarded. The pellet (MR-SP) was washed with Tris-HCl buffer (50 mM, pH 7.4) and centrifuged. This process was repeated until the supernatant was clear. The MR-SP was then collected.
Chromatographic procedures: The MR-SP (200 mg) was packed into a HR 5/2 glass column (Amersham Pharmacia Biotech, Uppsala, Sweden) to yield a 150 mm×5 mm (ID) chromatographic bed. The column was then connected to a P 1000 isocratic HPLC pump (Thermo Separations, San Jose, Calif., USA). The mobile phase consisted of Tris-HCl buffer (50 mM, pH 7.4) delivered at a flow rate 0.4 ml/min at room temperature.
In the chromatographic studies, a 50 ml sample Superloop (Amersham Pharmacia Biotech) was used to apply a series of (^3H)-marker ligand concentrations through the MR-SP column to obtain elution profiles showing front and plateau regions. […]

[6] = target: PGP (Homo sapiens, UniProt P08183); assay: Frontal chromatography on open tubular PGP column (PGP-OTB)
Sequence of PGP (P08183 whole entry): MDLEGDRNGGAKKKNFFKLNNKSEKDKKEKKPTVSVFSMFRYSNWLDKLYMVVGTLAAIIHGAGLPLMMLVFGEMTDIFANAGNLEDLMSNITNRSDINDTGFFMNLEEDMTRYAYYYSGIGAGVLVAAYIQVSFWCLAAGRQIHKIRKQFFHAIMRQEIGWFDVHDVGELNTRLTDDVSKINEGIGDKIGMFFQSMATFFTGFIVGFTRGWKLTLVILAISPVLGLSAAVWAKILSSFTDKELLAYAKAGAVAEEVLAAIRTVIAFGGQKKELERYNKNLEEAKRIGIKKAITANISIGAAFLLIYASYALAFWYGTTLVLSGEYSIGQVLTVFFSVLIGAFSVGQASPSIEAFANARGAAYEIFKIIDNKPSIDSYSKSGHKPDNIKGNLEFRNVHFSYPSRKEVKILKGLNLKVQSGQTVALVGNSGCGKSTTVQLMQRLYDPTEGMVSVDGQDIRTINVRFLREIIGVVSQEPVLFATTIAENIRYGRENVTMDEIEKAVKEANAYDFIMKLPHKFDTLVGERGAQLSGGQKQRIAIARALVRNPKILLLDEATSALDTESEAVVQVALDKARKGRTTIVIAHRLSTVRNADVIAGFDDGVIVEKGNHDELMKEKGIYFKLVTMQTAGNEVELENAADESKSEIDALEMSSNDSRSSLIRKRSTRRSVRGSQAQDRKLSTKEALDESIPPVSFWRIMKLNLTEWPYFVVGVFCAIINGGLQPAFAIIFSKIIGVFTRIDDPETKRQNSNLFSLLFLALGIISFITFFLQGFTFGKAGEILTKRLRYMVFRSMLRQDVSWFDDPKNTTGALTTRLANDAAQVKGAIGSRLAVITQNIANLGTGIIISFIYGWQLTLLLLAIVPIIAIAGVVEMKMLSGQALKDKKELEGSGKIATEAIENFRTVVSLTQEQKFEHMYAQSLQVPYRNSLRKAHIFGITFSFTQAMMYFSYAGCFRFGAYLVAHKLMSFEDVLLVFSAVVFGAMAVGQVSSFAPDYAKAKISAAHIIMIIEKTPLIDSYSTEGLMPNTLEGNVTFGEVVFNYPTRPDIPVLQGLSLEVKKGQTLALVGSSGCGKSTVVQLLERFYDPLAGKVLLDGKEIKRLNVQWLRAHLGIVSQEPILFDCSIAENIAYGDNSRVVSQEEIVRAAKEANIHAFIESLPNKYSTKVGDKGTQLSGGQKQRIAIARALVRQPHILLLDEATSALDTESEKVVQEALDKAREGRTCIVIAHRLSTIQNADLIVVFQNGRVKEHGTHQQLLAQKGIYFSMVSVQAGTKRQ
Description: Preparation of open tubular capillary: A 25 cm×100 u ID capillary was cleaned with 0.5 N NaOH running through for 40 minutes at low pressure followed by water for 20 minutes. Then placed in the oven at 95° C. for 30 minutes. Then APTS (90 parts water: 10 parts APTS) was run through the column for 5 minutes at high pressure and placed in the oven for 30 minutes. This was repeated and left overnight. The following morning, a 1% gluteraldehyde solution in PBS was then run through at high pressure for 30 minutes followed by air. Then avidin (10 mg in 4 mL 50 mM PBS) was run through for 3 minutes at high pressure. Then both tips were submerged in the avidin solution overnight at 4° C. It was determined at this stage that the column needs to be washed for 4-6 hours at 50 ul/min with Tris buffer prior to continuing to the next stage. The purpose being to remove any unbound avidin. A frontal study using a 5 mL sample of 0.5 nM ^3H-Vinblastin (RM062702002) was carried out to determine if vinblastin had specific binding to avidin.
Subsequently, a solution of 14 mM BioX (15 mg of BioX in 1 mL DMSO) was run through the column at high pressure for 10 minutes and left in the solution for 48 hours. A frontal study of 0.5 nM ^3H-Vinblastin (5 mL) was carried out on the BiotinX-Avidin labeled OT column to determine if any interactions between vinblastin and biotin could be seen. […]

Sequence of NCT receptor (P12390 25-500): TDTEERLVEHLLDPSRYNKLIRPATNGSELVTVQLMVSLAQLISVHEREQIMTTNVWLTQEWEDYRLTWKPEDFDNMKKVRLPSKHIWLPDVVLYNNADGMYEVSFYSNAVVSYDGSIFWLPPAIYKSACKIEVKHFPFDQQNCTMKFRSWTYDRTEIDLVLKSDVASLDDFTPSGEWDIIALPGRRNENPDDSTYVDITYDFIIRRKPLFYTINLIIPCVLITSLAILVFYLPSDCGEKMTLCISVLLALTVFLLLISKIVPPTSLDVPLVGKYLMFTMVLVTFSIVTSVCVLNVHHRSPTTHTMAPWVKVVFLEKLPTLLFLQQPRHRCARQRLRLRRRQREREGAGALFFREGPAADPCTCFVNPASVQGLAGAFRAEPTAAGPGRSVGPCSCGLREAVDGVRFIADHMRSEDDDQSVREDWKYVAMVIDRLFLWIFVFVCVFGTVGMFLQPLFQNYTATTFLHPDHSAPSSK
Sequence of NCT receptor (P09483 31-630): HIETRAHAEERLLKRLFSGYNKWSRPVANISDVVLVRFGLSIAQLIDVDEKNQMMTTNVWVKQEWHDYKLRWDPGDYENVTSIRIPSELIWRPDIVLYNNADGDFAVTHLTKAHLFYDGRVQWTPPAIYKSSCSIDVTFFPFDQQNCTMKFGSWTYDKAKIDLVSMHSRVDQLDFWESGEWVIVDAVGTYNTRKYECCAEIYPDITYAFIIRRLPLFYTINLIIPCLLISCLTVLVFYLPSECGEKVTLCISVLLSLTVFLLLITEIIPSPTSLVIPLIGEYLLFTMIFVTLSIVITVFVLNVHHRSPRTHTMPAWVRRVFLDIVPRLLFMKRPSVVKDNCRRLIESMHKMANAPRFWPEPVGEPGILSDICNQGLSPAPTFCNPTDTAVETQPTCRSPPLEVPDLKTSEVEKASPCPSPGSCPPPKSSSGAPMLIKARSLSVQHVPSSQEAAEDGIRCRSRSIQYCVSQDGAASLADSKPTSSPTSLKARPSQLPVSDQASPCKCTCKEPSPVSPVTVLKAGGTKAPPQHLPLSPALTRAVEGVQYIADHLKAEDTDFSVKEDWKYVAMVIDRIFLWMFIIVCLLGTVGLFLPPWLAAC

For `CN1CCCC1c1cccnc1` (stereo not shown) [Nicotine], the “Effect on elution (breakthrough) volume of 60 pM (3H)-EB” value [1] is given as “reduction in the breakthrough volume”, the “Effect on elution volume of 25 pM (3H)-FTZ” value ([2]; ligand at 1 μM in mobile phase) is given as “no decrease in the elution volume” and the Kd [3] is given as 0.8 nM.

For `Clc1ccc(C2CC3CCC2N3)cn1` (stereo not shown) [Epibatidine], the Kd ([3]; rat brain membranes) is listed as 0.05 nM.

In the case of `CN1C(=O)CN=C(c2ccccc2)c2cc(Cl)ccc21` [Diazepam], the Kd ([2]; MR-SP from rat brain, 25 pM (3H)-FTZ marker, Tris-HCl 50 mM pH 7.4) is listed as 1 nM and the Kd [4] is listed as 1.3 nM.

With `CN[C@H](CC(=O)O)C(=O)O` [NMDA, N-methyl D-aspartate] the “Displacement of (3H)-MK-801” value ([5]; displacer 1 mM to 2 mM in chromatographic buffer) was “able to specifically displace” and the Kd ([5]; read-out: Kd Frontal, MR-SP, 2 nM (3H)-MK-801 marker, 1 μM L-glutamate and 1 μM glycine, two determinations (FIG. 2A, 2B)) was 1.2 nM and 0.6 nM.

With `CC[C@]1(O)C[C@@H]2CN(CCc3c([nH]c4ccccc34)[C@@](C(=O)OC)(c3cc4c(cc3OC)N(C)[C@H]3[C@@](O)(C(=O)OC)[C@H](OC(C)=O)[C@]5(CC)C=CCN6CC[C@]43[C@@H]65)C2)C1` [Vinblastin] the “Bmax (binding sites on the PGP-OTB column)” value ([6]; not told) was 3 mmol and the Kd ([6]; read-out: Kd for the PGP-OTB column, 0.5 nM 3H-Vinblastin marker, r2 0.902) was 97 nM.

From patent US20030166301A1, “Multiple binding moiety chromatography device, methods of using and methods of making same” (priority 2001, published 2003)
